Measurements published in ChEMBL document CHEMBL1122028, “1-Acyltriazoles as antiinflammatory agents” (J Med Chem, 1982).

Key:
Rattus norvegicus [1] = assay: Biological activity against carrageenan-induced edema; type: functional; conditions: read-out: ID50 (the source's name)
Rattus norvegicus [2] = assay: Biological activity against adjuvant-induced arthritis at the dose of 37.5 mg/kg (p.o.); 18/7; type: functional; conditions: route oral
Rattus norvegicus [3] = assay: Biological activity against adjuvant-induced arthritis at the dose of 37.5 mg/kg (p.o.); type: functional; conditions: route oral
Mus musculus [4] = assay: Tested for antiinflammatory activity in the mouse active Arthus (MAA) test by peroral administration; type: functional; conditions: for ED50: po, read-out: ID50 (the source's name)
[5] = Therapeutic index (LD50/ID50, MAA) value of the compound; conditions: read-out: TI
Rattus norvegicus [6] = assay: Biological activity against adjuvant-induced arthritis at the dose of 150 mg/kg (p.o.); type: functional; conditions: route oral
[7] = Lethal dose required to produce acute toxicity in mice(po); type: organism-based; conditions: mouse, in vivo
Rattus norvegicus [8] = assay: Biological activity against adjuvant-induced arthritis at the dose of 150 mg/kg (p.o.); 21/73; type: functional; conditions: route oral
Rattus norvegicus [9] = assay: Biological activity against adjuvant-induced arthritis at the dose of 75 mg/kg (p.o.); 27/26; type: functional; conditions: route oral
Mus musculus [10] = assay: Tested for antiinflammatory activity in the mouse active Arthus (MAA) test by intraperitoneal administration; type: functional; conditions: ip, read-out: ID50 (the source's name)
Rattus norvegicus [11] = assay: Biological activity against adjuvant-induced arthritis at the dose of 75 mg/kg (p.o.); type: functional; conditions: route oral
[12] = Lethal dose required to produce acute toxicity in mice(ip); type: organism-based; conditions: mouse, in vivo
Rattus norvegicus [13] = species on record: Rattus norvegicus; assay: animal or person; conditions: po, read-out: Inhibition
Description: Biological activity against adjuvant-induced arthritis at the dose of 30 mg/kg (p.o.); 30/30

Rattus norvegicus [14] = assay: Biological activity against adjuvant-induced arthritis at the dose of 120 mg/kg (p.o.); type: functional; conditions: route oral
Rattus norvegicus [15] = assay: Biological activity against adjuvant-induced arthritis at the dose of 30 mg/kg (p.o.); type: functional; conditions: route oral
Rattus norvegicus [16] = species on record: Rattus norvegicus; assay: animal or person; conditions: po, read-out: Inhibition; remark: listed apart in the source
Description: Biological activity against adjuvant-induced arthritis at the dose of 60 mg/kg (p.o.); 56/61

Rattus norvegicus [17] = assay: Biological activity against adjuvant-induced arthritis at the dose of 120 mg/kg (p.o.); 65/57; type: functional; conditions: route oral
Rattus norvegicus [18] = assay: Biological activity against adjuvant-induced arthritis at the dose of 60 mg/kg (p.o.); type: functional; conditions: route oral

For CC(=O)n1nc(-c2ccc(Cl)cc2)nc1C, which ED50 (Rattus norvegicus [1]) is on record?
Its ED50 is over 150 mg/kg.

What about the inhibition in vivo at 37.5 mg/kg (Rattus norvegicus [2]) of the same compound?
The inhibition in vivo at 37.5 mg/kg was 18%.

And the inhibition in vivo at 37.5 mg/kg (Rattus norvegicus [3])?
Its inhibition in vivo at 37.5 mg/kg is 90%.

What about the ID40 (Mus musculus [4]) of the same compound?
The ID40 was 175 mg/kg.

What about the ED50 (Mus musculus [4]) of the same compound?
The ED50 was 342 mg/kg.

And the selectivity ratio [5]?
The selectivity ratio was over 9.35.

What about the inhibition in vivo at 150 mg/kg (Rattus norvegicus [6]) of the same compound?
Its inhibition in vivo at 150 mg/kg is 90%.

What about the LD50 [7] of the same compound?
The LD50 was over 3200 mg/kg.

What about the inhibition in vivo at 150 mg/kg (Rattus norvegicus [8]) of the same compound?
The inhibition in vivo at 150 mg/kg was 21%.

And the inhibition in vivo at 75 mg/kg (Rattus norvegicus [9])?
Its inhibition in vivo at 75 mg/kg is 27%.

And the ED50 (Mus musculus [10])?
Its ED50 is 37 mg/kg.

And the inhibition in vivo at 75 mg/kg (Rattus norvegicus [11])?
The inhibition in vivo at 75 mg/kg was 90%.

And the LD50 [12]?
Its LD50 is 600 mg/kg.

With Cc1nnc(C)n1/N=C(\N)c1ccc(C(F)(F)F)cc1 as the compound, how does the ED50 (Mus musculus [4]) read?
Its ED50 is over 600 mg/kg.

For CCc1nnc(CC)n1N, which ED50 (Mus musculus [4]) is on record?
Its ED50 is over 600 mg/kg.

Which ED50 (Mus musculus [4]) does the source give for Cc1nc(-c2ccc(Cl)cc2)nn1C(=O)c1ccccc1 here?
The ED50 was over 600 mg/kg.

For Cc1ccc(C(=N)Nn2c(C)nnc2C)cc1, which ED50 (Mus musculus [4]) is on record?
The ED50 was over 600 mg/kg.

With CC(=O)n1nc(-c2ccc(C)cc2)nc1C as the compound, how does the ED50 (Mus musculus [4]) read?
Its ED50 is over 600 mg/kg.

Which ED50 (Mus musculus [4]) does the source give for Cc1nnc(C)n1/N=C(\N)c1ccccc1 here?
Its ED50 is over 600 mg/kg.

Which ED50 (Mus musculus [4]) does the source give for CC(=O)n1nc(-c2ccc(C(F)(F)F)cc2)nc1C here?
The ED50 was 411 mg/kg.

With CCC(=O)n1nc(-c2ccc(Cl)cc2)nc1C as the compound, how does the ED50 (Mus musculus [4]) read?
The ED50 was 408 mg/kg.

Which ED50 (Mus musculus [4]) does the source give for CCc1nnc(CC)n1/N=C(\N)c1ccc(Cl)cc1 here?
Its ED50 is over 600 mg/kg.

With CCc1nc(-c2ccc(Cl)cc2)nn1C(C)=O as the compound, how does the ED50 (Mus musculus [4]) read?
The ED50 was 543 mg/kg.

Which ED50 (Mus musculus [4]) does the source give for CC(=O)n1nc(-c2ccccc2)nc1C here?
The ED50 was 439 mg/kg.

Which results are given for CC(C)Cc1ccc(C(C)C(=O)O)cc1 (configuration not stated) [IBUPROFEN]?
ED50 (Rattus norvegicus [1]): 70 mg/kg; inhibition in vivo at 30 mg/kg (Rattus norvegicus [13]): 30%; inhibition in vivo at 120 mg/kg (Rattus norvegicus [14]): 100%; inhibition in vivo at 30 mg/kg (Rattus norvegicus [15]): 100%; ID40 (Mus musculus [4]): 386 mg/kg; ED50 (Mus musculus [4]): > 600 mg/kg; selectivity ratio [5]: < 2.15; inhibition in vivo at 60 mg/kg (Rattus norvegicus [16]): 56%; inhibition in vivo at 120 mg/kg (Rattus norvegicus [17]): 65%; LD50 [7]: 1650 mg/kg; ED50 (Mus musculus [10]): > 150 mg/kg; LD50 [12]: 490 mg/kg; inhibition in vivo at 60 mg/kg (Rattus norvegicus [18]): 100%
